Experimental data taken from patent US20040072871A1, “Novel thiophene derivatives, their process of preparation and the pharmaceutical compositions which comprise them” (priority 2002, published 2004).
Counter-ions that a name gives are not always drawn.

Assays:
MMP-13 = MMP-13 (Homo sapiens, UniProt P45452); assay: MMP-12 test adapted to MMP-13; assay type: biochemical
Method: (§1) The inhibitory activity of the compounds of formula (I) with regard to metalloproteinase-12 is evaluated by testing the ability of the compounds of the invention to inhibit the proteolysis of a peptide substrate by MMP-12.
(§2) The inhibitory activity of a compound of formula (I) is expressed as IC50 value, which represents the concentration of inhibitor at which a degree of inhibition of the metalloproteinase of 50% is observed.
(§3) The reaction begins with the sequential addition of 41 μl of substrate FP-1 (final concentration of 10 μM) to a buffer solution of 50 mM of Tris-HCl and 10 mM of CaCl2, which comprises 5 mM of hydroxamic acid and 5 μl of the enzyme diluted in a 0.005% Brij-35 buffer solution. The microplates are incubated for 20 minutes at ambient temperature. The compounds of the invention are tested at concentrations varying from 0.3 to 30 μM.
(§4) The measurement of the amount of proteolysis of the peptide substrate is monitored by a measurement of absorbance at 405 nm using a microplate spectrophotometer, at ambient temperature. The IC50 values are calculated from curves in which the percentage of the catalytic activity relative to the control is represented on the […] and the concentration of inhibitor is represented on the Y axis.
The test described above for the inhibition of MMP-12 is adapted and used to determine the ability of the compounds of formula (I) to inhibit the metalloproteinases MMP-1, MMP-2, MMP-3, MMP-7, MMP-9, MMP-13 and MMP-14. […] More specifically, the compounds of the present invention generally show a selectivity with a factor of greater than 50 with respect to the metalloproteinases mentioned above, except towards MMP-13. Thus, the compounds of the present invention also show an inhibitory activity with regard to MMP-13, making it possible to also use the pharmaceutical compositions comprising one or more compounds of the invention in the treatment of pathologies related to activity of MMP-13. Mention may be made, among these pathologies, by way of indication and without implied limitation, of cancer, osetoporosis, osteoarthritis, arthritis, rheumatoid arthritis, atherosclerosis, multiple sclerosis, cardiac insufficiency, asthma and chronic obstructive pulmonary disease.

MMP-12 = MMP-12 (Homo sapiens, UniProt P39900); assay: In vitro inhibition of proteolysis of fluorogenic peptide substrate FP-1 by MMP-12; assay type: biochemical; conditions: substrate FP-1 10 μM, 20 minutes at ambient temperature, compounds tested 0.3 to 30 μM
Method: as §1, §2, §3, §4

Chain of MMP-12 (P39900 106-470): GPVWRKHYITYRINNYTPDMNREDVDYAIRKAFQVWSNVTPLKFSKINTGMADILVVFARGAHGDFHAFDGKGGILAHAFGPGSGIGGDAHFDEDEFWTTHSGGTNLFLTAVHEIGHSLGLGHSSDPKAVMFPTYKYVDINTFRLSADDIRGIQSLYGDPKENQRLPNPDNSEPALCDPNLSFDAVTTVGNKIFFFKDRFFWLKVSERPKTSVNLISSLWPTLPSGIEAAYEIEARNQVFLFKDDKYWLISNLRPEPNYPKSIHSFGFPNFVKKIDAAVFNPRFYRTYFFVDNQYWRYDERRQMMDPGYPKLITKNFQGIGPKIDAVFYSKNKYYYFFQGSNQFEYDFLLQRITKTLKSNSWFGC

IC50 (MMP-13) [µM]	IC50 (MMP-12) [µM]	Compound
0.78	0.13	2-(4-{[(4-{4-[4-(2-Oxopropyl)-3-hydroxyphenyl]phenyl}thien-2-yl)carboxamido]methyl}phenyl)acetic acid [Example 119]
3.8	0.49	3-[4-({[4-(4-Trifluoromethoxyphenyl)thien-2-yl]carboxamido}-methyl)phenyl]propanoic acid [Example 63]
3.95	0.32	O=C(O)CC[C@@H]1CCC[C@@H](NC(=O)c2cc(-c3ccc(OC(F)(F)F)cc3)cs2)C1 (relative stereo) [Example 125, trans-3-(3-{[4-(4-Trifluoromethoxyphenyl)thien-2-yl]-carboxamido}cyclohexyl)propanoic acid]
30	0.35	O=C(NCCN1CCOCC1)c1cc(-c2ccc(-c3ccccc3)cc2)cs1 [Example 2, 4-(4-Biphenyl)-N-(2-morpholin-4-ylethyl)thiophene-2carboxamide]
1.5	0.105	O=C(NCCN1CCOCC1)c1cc(-c2ccc(-c3ccncc3)cc2)cs1 [Example 9, 4-[4-(Pyridin-4-yl)phenyl]-N-(2-morpholin-4-ylethyl)thiophene-2-carboxamide]
4.8	0.91	O=C(NCCN1CCOCC1)c1cc(-c2ccc(-c3cccnc3)cc2)cs1 [Example 11, 4-[4-(Pyridin-3yl)phenyl]-N-(2-morpholin-4-ylethyl)thiophene-2-carboxamide]
2.08	0.86	O=C(NCCN1CCOCC1)c1cc(-c2ccc(N3CCCC3)cc2)cs1 [Example 14, 4-[4-(Pyrrolidin-1-yl)phenyl]-N-(2-morpholin-4-ylethyl)thiophene-2-carboxamide]
11	0.46	O=C(NCCN1CCOCC1)c1cc(-c2ccc(C3CCCCC3)cc2)cs1 [Example 21, 4-[4-(Cyclohexyl)phenyl]-N-(2-morpholin-4-ylethyl)thiophene-2-carboxamide]
11.6	0.915	Cn1ccc(-c2ccc(-c3csc(C(=O)NCCN4CCOCC4)c3)cc2)n1 [Example 22, 4-[4-(1-Methyl-1H-pyrazol-3-yl)phenyl]-N-(2-morpholin-4-ylethyl)thiophene-2-carboxamide]
6.1	0.845	O=C(O)CCc1ccc(NC(=O)c2cc(-c3ccc(OC(F)(F)F)cc3)cs2)nc1 [Example 27]
3.45	0.405	O=C(NC[C@H]1CC[C@H](C(=O)O)CC1)c1cc(-c2ccc(OC(F)(F)F)cc2)cs1 [Example 35, trans-4-({[4-(4-Trifluoromethoxyphenyl)thien-2-yl]-carboxamido}methyl)cyclohexanecarboxylic acid]
4.53	0.427	O=C(O)Cc1ccc(CNC(=O)c2cc(-c3ccc(OC(F)(F)F)cc3)cs2)cc1 [Example 37, 2-[4-({[4-(4-Trifluoromethoxyphenyl)thien-2-yl]carboxamido}-methyl)phenyl]acetic acid]
5.17	0.883	O=C(O)Cc1cccc(CNC(=O)c2cc(-c3ccc(OC(F)(F)F)cc3)cs2)c1 [Example 41, 2-[3-({[4-(4-Trifluoromethoxyphenyl)thien-2-yl]carboxamido}-methyl)phenyl]acetic acid]
5.37	0.715	O=C(NCC1CCC(C(=O)O)CC1)c1cc(-c2ccc(OC(F)(F)F)cc2)cs1 (stereo not drawn) [Example 43, 4-({[4-(4-Trifluoromethoxyphenyl)thien-2-yl]carboxamido}-methyl)cyclohexanecarboxylic acid]
2.85	0.92	O=C(O)c1ccc(CNC(=O)c2cc(-c3ccc(OC(F)(F)F)cc3)cs2)nc1 [Example 45, 6-({[4-(4-Trifluoromethoxyphenyl)thien-2-yl]carboxamido}-methyl)nicotinic acid]
3.59	0.436	O=C(O)c1ccc(CNC(=O)c2cc(-c3ccc(OC(F)(F)F)cc3)cs2)cc1 [Example 47, 4-({[4-(4-Trifluoromethoxyphenyl)thien-2-yl]carboxamido}-methyl)benzoic acid]
15.8	0.615	O=C(O)Cc1ccc(NC(=O)c2cc(-c3ccc(OC(F)(F)F)cc3)cs2)cc1 [Example 55, (4-{[4-(4-Trifluoromethoxyphenyl)thien-2-yl]carboxamido}-phenyl)acetic acid]

IC50 (MMP-13) [µM]	IC50 (MMP-12) [µM]	Compound
2.9	0.685	O=C(O)CCc1cccc(CNC(=O)c2cc(-c3ccc(OC(F)(F)F)cc3)cs2)c1 [Example 65, 3-[3-({[4-(4-Trifluoromethoxyphenyl)thien-2-yl]carboxamido}-methyl)phenyl]propanoic acid]
0.285	0.022	O=C(NC[C@H]1CC[C@H](C(=O)O)CC1)c1cc(-c2ccc(-c3ccncc3)cc2)cs1 [Example 70, 4-[({4-[4-(Pyridinyl)phenyl]thien-2-yl}carboxamido)methyl]cyclo-hexanecarboxylic acid hydrochloride]
0.13	0.057	CC(=O)c1ccc(-c2ccc(-c3csc(C(=O)NCCN4CCOCC4)c3)cc2)cc1 [Example 72, 4-[4-(4-Acetylphenyl)phenyl]-N-(2-morpholin-4-ylethyl)thiophene-2-carboxamide]
0.4	0.355	O=C(NCCN1CCOCC1)c1cc(-c2ccc(-c3ccc(F)cc3)cc2)cs1 [Example 73, 4-[4-(4-Fluorophenyl)phenyl]-N-(2-morpholin-4-ylethyl)thiophene-2-carboxamide]
6.25	0.465	O=C(NCCN1CCOCC1)c1cc(-c2ccc(-c3cccc(O)c3)cc2)cs1 [Example 74, 4-[4-(3-Hydroxyphenyl)phenyl]-N-(2-morpholin-4-ylethyl)thiophene-2-carboxamide]
0.27	0.34	CS(=O)(=O)c1ccc(-c2ccc(-c3csc(C(=O)NCCN4CCOCC4)c3)cc2)cc1 [Example 75, 4-[4-(4-Methylsulphonylphenyl)phenyl]-N-(2-morpholin-4-ylethyl)thiophene2-carboxamide]
3.7	0.48	CC(=O)c1cccc(-c2ccc(-c3csc(C(=O)NCCN4CCOCC4)c3)cc2)c1 [Example 76]
3.7	0.5	O=C(O)Cc1ccc(CNC(=O)c2cc(-c3ccc(Oc4ccccc4)cc3)cs2)cc1 [Example 81, 2-[4-({[4-(4-Phenoxyphenyl)thien-2-yl]carboxamido}methyl)phenyl]-acetic acid]
3.06	0.56	O=C(NCc1cc(F)c(O)c(F)c1)c1cc(-c2ccc(OC(F)(F)F)cc2)cs1 [Example 84, N-(3,5-Difluoro-4-hydroxybenzyl)-4-(4-trifluoromethoxyphenyl)-thiophene-2-carboxamide]
5	0.45	O=C(NC[C@H]1CC[C@H](C(=O)O)CC1)c1cc(-c2ccc(OC(F)(F)F)cc2)cs1 [Example 99, trans-4-({[4-(4-Trifluoromethoxyphenyl)thien-2-yl]carboxamido}-methyl)cyclohexanecarboxylic acid, Sodium Salt]
3.7	0.99	O=C(NCCN1CCOCC1)c1cc(-c2ccc(-c3cccc(CO)c3)cc2)cs1 [Example 101, 4-{4-[3-(Hydroxymethyl)phenyl]phenyl}-N-(2-morpholin-4-ylethyl)-thiophene-2-carboxamide]
	0.05	CCC(=O)c1ccc(-c2ccc(-c3csc(C(=O)NCc4ccc(CC(=O)O)cc4)c3)cc2)cc1 [Example 103, 2-[4-({[4-(4′-Propionyl-4-biphenyl)thien-2-yl]carboxamido}-methyl)phenyl]acetic acid]
	0.05	O=C(O)Cc1ccc(CNC(=O)c2cc(-c3ccc(-c4ccc(C(=O)C5CC5)cc4)cc3)cs2)cc1 [Example 105, 2-[4-({[4-(4′-Cyclopropylcarbonyl-4-biphenyl)thien-2-yl]-carboxamido}methyl)phenyl]acetic acid]
0.4	0.165	N#CCc1ccc(-c2ccc(-c3csc(C(=O)NCc4ccc(CC(=O)O)cc4)c3)cc2)cc1 [Example 109, 2-[4-({[4-(4′-Cyanomethyl-4-biphenyl)thien-2-yl]carboxamido}-methyl)phenyl]acetic acid]
	0.14	CC(=O)c1ccc(-c2ccc(-c3csc(C(=O)NCc4ccc(CC(=O)O)cc4)c3)cc2)cc1O [Example 113]
	0.72	O=C(NC1CCCCC1CO)c1cc(-c2ccc(OC(F)(F)F)cc2)cs1 (stereo not drawn) [Example 121, N-[2-(Hydroxymethyl)cyclohexyl]-4-(4-trifluoromethoxyphenyl)-thiophene-2-carboxamide]

Compound	IC50 (MMP-13) [µM]	IC50 (MMP-12) [µM]
2-[4-({[4-(4′-Benzoyl-4-biphenyl)thien-2-yl]carboxamido}-methyl)phenyl]acetic acid [Example 107]		0.05
